Data from article PMC3429353 (Bioorganic & medicinal chemistry, 2012).
pIC50: −log10 of the molar value. ≈ marks a conversion by molar mass, not a printed value.

How the values were obtained:
[1] = test system: HT-29, MCF-7, NCI-H460, SF268, and IMR90 cells; assay: Cytotoxicity against the panel of cell lines; assay type: cell-based, Human
[2] = test system: M. tuberculosis, M. smegmatis, C. albicans, E. coli, and A. baumanii; assay: Antimicrobial activity against a panel of microorganisms; assay type: cell-based
Vero cells = assay: Vero cell cytotoxicity
IMR90 cells = assay: Cytotoxicity against IMR90 cells; assay type: cell-based, Human
Mycobacterium smegmatis = assay: Antimicrobial activity; assay type: cell-based
Candida albicans = assay: Antimicrobial activity; assay type: cell-based
Staphylococcus aureus = assay: Antimicrobial activity; assay type: cell-based
Escherichia coli = assay: Antimicrobial activity; assay type: cell-based
Acinetobacter baumannii = assay: Antimicrobial activity; assay type: cell-based
[3] = test system: Mycobacterium tuberculosis

C=C[C@]1(C)CC2C(=O)c3c(NC=O)cccc3C(C)(C)[C@H]2C[C@H]1O (relative stereo) [13-hydroxy dechlorofontonamide (3), 13-hydroxy dechlorofontonamide]
cytotoxicity (in words) ([1]; all cell lines tested (HT-29, MCF-7, NCI-H460, SF268, IMR90)): inactive
antimicrobial activity (in words) [2]: no antimicrobial activity

[C-]#[N+]C1=C2c3c[nH]c4cccc(c34)C(C)(C)[C@H]2CC[C@]1(C)C=C [Deschloro hapalindole I (2), deschloro hapalindole I]
antimicrobial activity (in words) [2]: no antimicrobial activity

[C-]#[N+][C@@H]1[C@H]2c3c[nH]c4cccc(c34)C(C)(C)[C@@H]2CC[C@]1(C)C=C [Hapalindole H]
pIC50 ([1]; Homo sapiens, read-out: IC50 values (range over cell lines)): 4.50 to 5.07

[C-]#[N+]C1=C2c3c[nH]c4cccc(c34)C(C)(C)[C@H]2C[C@@H](Cl)[C@]1(C)C=C [Hapalindole I]
cytotoxicity against Vero cells (in words) (Vero cells): no detectable cytotoxicity

[C-]#[N+][C@H]1C(=C)[C@@H](C=C)C[C@@H]2[C@@H]1c1c[nH]c3cccc(c13)C2(C)C [Hapalindole X (1), hapalindole X]
cytotoxicity (in words) (IMR90 cells): relatively low cytotoxicity
cytotoxicity (in words) ([1]; all four cancer cells (HT-29, MCF-7, NCI-H460, SF268)): moderate cytotoxicity

[C-]#[N+][C@@H]1[C@H]2C(=O)c3c(NC=O)cccc3C(C)(C)[C@@H]2CC[C@]1(C)C=C [Hapalonamide H]
MIC M. smegmatis (Mycobacterium smegmatis): 34.3 µM (≈ 11.5 µg/mL)
MIC C. albicans (Candida albicans): < 0.6 µM
MIC S. aureus (Staphylococcus aureus): > 100 µM
MIC E. coli (Escherichia coli): > 100 µM
MIC A. baumanii (Acinetobacter baumannii): > 100 µM
MIC M. tuberculosis [3]: 1.2 µM (≈ 0.404 µg/mL)
pIC50 (Vero cells; read-out: IC50 Vero, Vero cell toxicity): 4.87

Gentamycin [reference compound]
MIC E. coli (Escherichia coli): 2.3 µM
